Earlier results in US20130129859A1, “DOSING PROTOCOLS FOR INCREASING PROTEIN SYNTHESIS IN AN ACTIVE INDIVIDUAL” (priority 2009, published 2013).

casein
Whole-body protein synthesis (previously discussed study): best with casein
Leucine balance, slow versus fast protein meal matched for leucine content (young, healthy subjects): higher leucine balance
